The values below come from publication PMC4104761, “Identification of a novel lytic peptide for the treatment of solid tumours” (Genes & Cancer, 2014).

Data set [1] concerns all cancer cell lines. Kind of data set: MTT viability assay, average of all cancer cell lines. The format is cell-based. The conditions noted are these: 20 µg Cypep-1/ml, 60 min exposure. How it is done: (§1) Cypep-1 was tested in various concentrations on a total of 17 cell lines, which included 13 human and 1 murine tumour cell line(s), as well as 3 normal human cell lines. Listed in detail: 4 human osteosarcoma (U2OS, SaOS2, HOS and MNNG-HOS), 6 human glioblastoma (A172, GaMg, LN18, U87, U373 and T98G) and 3 human mammary carcinoma cell lines (MCF7, AU565 and MDA-MB-468) as well as an additional murine mammary carcinoma cell line (4T1). Furthermore, 3 normal human cell lines were included: 2 normal human fibroblast cell lines (HFF1 and 142Br) as well as normal human osteoblasts (HOB).
(§2) MTT proliferation assays were performed on all cell lines (with the exception of 142Br (human skin fibroblasts)), using monolayers of 15 000 cells in sterile 96 well tissue culture plates (Nunc™, Roskilde, Denmark), respectively. All cells were incubated with Cypep-1 dissolved in 0.9% NaCl, at the following concentrations: 0.1, 0.5, 1.0, 5, 10, 15, 20, 25, 30 and 35µg of Cypep-1 per ml and assayed after 15, 30, 45, 60, 75, 90, 180, 270 and 360 min.

The nature of data set [2]: Surface plasmon resonance (SPR) binding to liposomes. Conditions: BIAcore 3000, L1 chip, curve fitting. How it is done:
SPR was used to quantify the binding of Cypep-1 to phospholipid model membranes of different compositions at neutral pH (pH 7.4) and a temperature of 25 °C. 100 nm liposomes made of egg yolk […] (EYL; L-α-phosphatidylcholine; 95% purity) were employed to represent amphitropic, neutral membranes, while liposomes composed of both pig brain L-α-phosphatidylserine (PBPS) and EYL (from Avanti Polar Lipids Inc., Alabaster, Alabama, USA), with PBPS:EYL in a 1:1 M: M mixture, represented acidic, negatively charged membranes. […] [79]. The SPR analyses were carried out on a BIAcore 3000 instrument (BIAcore AB, Uppsala, Sweden) as described in Halskau et al., using a L1 sensor chip from BIAcore (BIAcore AB, Uppsala, Sweden).

The subject of data set [3] is mammary carcinoma AU 565. Description: MTT viability assay. The format is cell-based, human. The conditions noted are these: 20 µg Cypep-1/ml, 60 min incubation, most sensitive cell line. On the procedure:
as §1, §2

The test system of data set [4] is glioblastoma GaMg. Description: MTT viability assay. The format is cell-based, human. Conditions: 20 µg Cypep-1/ml, 60 min incubation, least sensitive cell line. How it is done:
as §1, §2

The test system of data set [5] is 4T1 murine mammary carcinoma allografts. Description: Treatment of subcutaneous 4T1 murine breast cancer allografts. The class given is in vivo, BALB/c mice. On the procedure:
10^6 4T1 murine metastatic breast cancer cells were grafted subcutaneously under Isofluran anaesthesia into the right upper quadrant of the back of 20 female BALB/c mice (average age 126,25 days; average weight 23.8g). At day 12, when the tumours of both groups had reached a tumour volume of 0.12cm^3 in average, 10 female mice (average weight 23.9 g) received a single intra-tumoural injection of 1200 µg of Cypep-1 dissolved in 300 µl 0.9% NaCl, whereas an equal injection volume of 0.9% NaCl was administered to the 10 animals of the control group (average weight 23.7 g). All injections were performed under isofluoran gas anaesthesia. The animals were then observed for signs of distress as described above. 24 hours after the injections, two animals (one assigned to the control and one of the treatment group) were sacrificed for histological analysis. The harvested tumours were immediately fixed in 4% buffered formaldehyde and embedded in paraffin, cut into 5 µm sections and stained with H&E.
In the remaining 18 experimental animals, the tumour size was measured at regular intervals (every 4th day) until day 24 post tumour grafting. All mice were monitored daily for signs of distress and pain. Those that became sick were euthanized humanely. All animal procedures described were in accordance with protocols approved by The National Animal Research Authority (Oslo, Norway).

In data set [6] the test system is HOB normal human osteoblasts. Kind of data set: MTT viability assay. The class given is cell-based. Conditions: 20 µg Cypep-1/ml, 60 min incubation. How it is done:
as §1
(§3) All normal human cell lines were purchased from Promo Cell (Heidelberg, Germany). While the normal human foreskin fibroblasts (HFF1) were grown in DMEM medium as described above, the additional human skin fibroblast cell line (142Br) and the normal human osteoblasts (HOB) were cultured in purchased cell type specific growth mediums (Promo Cell, Heidelberg, Germany).
(§4) MTT proliferation assays were performed on all cell lines (with the exception of 142Br (human skin fibroblasts)), using monolayers of 15 000 cells in sterile 96 well tissue culture plates (Nunc™, Roskilde, Denmark), respectively. […]

Data set [7] deals with HFF1 normal human foreskin fibroblasts. Kind of data set: MTT viability assay. Conditions: 20 µg Cypep-1/ml, 60 min incubation. The format is cell-based. How it is done: as §1, §3, §4
Data set [8] relates to osteosarcoma cell lines (U2OS, SaOs2). Kind of data set: LIVE/DEAD Viability/Cytotoxicity assay. The format is cell-based, human. The conditions noted are these: morphometric evaluation (Calcein), 35 µg Cypep-1/ml, 3 hours. On the procedure:
In order to visualise and quantify the cytotoxic action of Cypep-1 simultaneously, the LIVE/DEAD® Viability/Cytotoxicity Kit was employed according to the manufacturers instructions on monolayers of 30 000 cells in sterile 24 multi well dishes (Nunc™, Roskilde, Denmark), using the selected human osteosarcoma cell lines U2OS and SaOs2 as well as the two human fibroblast cell lines HFF1 (foreskin) and 142Br (skin).
The monolayer cultures were incubated with Cypep-1 for a period of 3 hours in concentrations ranging from 2.5 µg to 35 µg/ml. The cells were observed using an inverted fluorescence microscope (Nikon Eclipse 2000E, Tokyo, Japan) equipped with FITC (green fluorescence) and TRITC (red fluorescence) filter optics. The fluorescent cells were then photographed at a 10x magnification. The proportions of viable cells (live cells showing green fluorescence due to the presence of Calcein) and dead cells (red fluorescent due to the membrane penetration of Ethidium-Homodimer-1) were quantified using a Lucia G Morphometry System, Version 4.71 (Laboratory Imaging, Prague, Czech Republic).

Take YGRKKRRQRRRGKTLRVAKAIYKRYIE [Cypep-1]: the “surviving fraction, average of all cancer cell lines” value in data set [1] was 18.6%. For the same sequence, the “peptide concentration of half-maximal binding (S0.5)” value worked out at 39.1 ± 5.3 µg/mL in data set [2] (100 nm EYL liposomes, pH 7.4, 25 °C) and 16.2 ± 4.4 µg/mL in data set [2] (100 nm liposomes PBPS:EYL 1:1, pH 7.4, 25 °C). In addition, the average surviving fraction in data set [3] is 7%; in data set [4], 33%; in data set [8], “lower than 5%”. Besides, in data set [5] (24 hours after intra-tumoural administration of 1200 µg, H&E), the “histological analysis of tumours” value is listed as “extensive areas of necrosis”. In addition, in data set [5] (single intra-tumoural injection of 1200 µg at day 12, control 3.5 cm^3, P<0.0001), the “average tumour volume at day 24” value turned out to be 1.1 cm^3. In addition, in data set [5] (single intra-tumoural injection of 1200 µg at day 12, control 20 days, P<0.0011), the median survival is on record as 32 days. For the same sequence, in data set [5] (single intra-tumoural injection of 1200 µg in 300µl 0.9% NaCl, BALB/c mice), the “signs of discomfort, pain or toxicity after intratumoural injection” value was “None of the animals showed any signs of discomfort, pain or toxicity”. Further, the survival rate came out at 44% in data set [6] and 66% in data set [7].
